# Results: publication PMC3903666 (Analytical biochemistry, 2012)
# Counter-ions that a name gives are not always drawn.
# Assays:
# Af SidA [1] = biological target: T1, Af SidA (Aspergillus fumigatus, UniProt E9QYP0); experiment: Fluorescence polarization binding assay, Af SidA
# [2] = biological target: KMO (kynurenine 3-monooxygenase) (Pseudomonas fluorescens, UniProt Q84HF5); experiment: Fluorescence polarization binding assay, KMO
# Af SidA [3] = biological target: T1, Af SidA; experiment: Fluorescence polarization displacement assay, Af SidA; type: binding
# Af SidA [4] = biological target: T1, Af SidA; experiment: Ornithine hydroxylation activity assay and inhibition of Af SidA; type: biochemical
# Af SidA [5] = biological target: T1, Af SidA; experiment: Fluorescence polarization displacement assay in high throughput screening; type: binding; details: 10 μM compound, 2 μM Af SidA, 30 nM chromophore 4, 2% DMSO
# T1 sequence (E9QYP0 whole entry): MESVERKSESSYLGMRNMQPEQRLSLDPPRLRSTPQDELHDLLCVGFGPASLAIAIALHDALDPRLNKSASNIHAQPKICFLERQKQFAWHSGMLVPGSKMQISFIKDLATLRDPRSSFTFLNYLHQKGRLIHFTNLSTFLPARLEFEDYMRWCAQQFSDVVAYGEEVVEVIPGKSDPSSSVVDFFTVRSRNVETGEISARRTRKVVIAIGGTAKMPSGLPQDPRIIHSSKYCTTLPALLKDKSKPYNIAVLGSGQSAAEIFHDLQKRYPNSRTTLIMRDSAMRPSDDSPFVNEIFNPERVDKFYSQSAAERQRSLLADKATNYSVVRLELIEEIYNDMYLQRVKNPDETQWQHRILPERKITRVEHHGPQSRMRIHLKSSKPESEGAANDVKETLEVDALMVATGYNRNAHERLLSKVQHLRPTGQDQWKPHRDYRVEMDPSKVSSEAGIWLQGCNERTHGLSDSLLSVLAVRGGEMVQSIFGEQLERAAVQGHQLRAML
# Sequence of KMO (kynurenine 3-monooxygenase) (Q84HF5 whole entry): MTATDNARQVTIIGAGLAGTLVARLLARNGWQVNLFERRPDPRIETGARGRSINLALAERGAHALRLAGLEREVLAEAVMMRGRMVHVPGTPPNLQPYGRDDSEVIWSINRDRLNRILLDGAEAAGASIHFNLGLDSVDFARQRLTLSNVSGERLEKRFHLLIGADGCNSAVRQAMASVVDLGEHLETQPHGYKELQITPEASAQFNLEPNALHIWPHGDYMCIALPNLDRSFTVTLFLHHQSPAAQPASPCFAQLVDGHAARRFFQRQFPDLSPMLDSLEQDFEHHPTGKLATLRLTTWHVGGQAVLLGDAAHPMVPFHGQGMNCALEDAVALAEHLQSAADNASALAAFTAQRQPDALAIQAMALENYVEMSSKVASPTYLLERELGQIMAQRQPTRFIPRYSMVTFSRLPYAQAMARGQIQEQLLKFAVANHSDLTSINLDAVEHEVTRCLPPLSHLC
smiles,measurement,setting,value
CN(C)c1ccc2c(c1)Oc1cc(N(C)C)ccc1C21OC(=O)c2ccc(C(=O)NCCCCCC(=O)NCCCCCCOP(=O)(O)OP(=O)(O)OCC3OC(n4cnc5c(N)ncnc54)C(O)C3O)cc21 (centres unmarked) [Chromophore 3],Kd,Af SidA [1],9 ± 5 µM
same,Kd,[2],10 ± 2 µM
CN(C)c1ccc2c(c1)Oc1cc(N(C)C)ccc1C21OC(=O)c2cc(C(=O)NCCCCCC(=O)NCCCCCCOP(=O)(O)OP(=O)(O)OCC3OC(n4cnc5c(N)ncnc54)C(O)C3O)ccc21 (centres unmarked) [Chromophore 4],Kd,Af SidA [1],2.1 ± 0.2 µM
same,Kd,[2],0.6 ± 0.05 µM
"NCCCC[C@H](N)C(=O)O [Lysine, lysine]",Kd,Af SidA [3],11000 ± 1000 µM
"NCCC[C@H](N)C(=O)O [Ornithine, ornithine]",Kd,Af SidA [3],4000 ± 1000 µM
"C[n+]1cc2c3c(ccc2c2ccc4cc5c(cc4c21)OCO5)OCO3 [Sanguinarine, sanguinarine sulfate]",IC50,Af SidA [4],500 ± 90 µM
same,inhibition of Af SidA activity observed,"Af SidA [4]; in the presence of NADPH and ornithine, inhibitor up to 1000 μM",100%
same,decrease of the anisotropy value in the screen,Af SidA [5],20%
COc1ccc2cc3[n+](cc2c1OC)CCc1cc2c(cc1-3)OCO2 [berberine],decrease in anisotropy (specificity of binding to Af SidA),"Af SidA [3]; addition of up to 1 mM compound, Figure 9S",did not produce a decrease in anisotropy similar to sanguinarine
COc1ccc2cc([C@H](C)C(=O)O)ccc2c1 [naproxen],binding to Af SidA,"Af SidA [3]; negative hit, Figure 9S",did not bind
